Experiment [1] deals with p53. The experiment is described as follows: p21 luciferase assay (p53 inhibition) in U20S cells upon doxorubicin. In kind it is cell-based. To be noted: for Ability to inhibit p53-dependent p21 luciferase activity / p21 expression (SAR, words): compared with lead / ortho-methyl analogs; for inhibition at 50 µM / % Inhibition (p53 inhibition, p21 luciferase activity): compounds at 50 μM, doxorubicin-treated U20S cells. Here is the method:
U20S Cells were transfected with p21 luciferase (1 μg) and renilla luciferase (100 ng) vectors in 6 well plate format using Fugene 6 (Roche). Briefly, total of 1.1 micrograms of vector was incubated with […] of Fugene 6 reagent for 30 min. After 3-4 hours of transfection, cell were treated with compounds for overnight, and then exposed to 300 nanogram of doxorubicin for next 24 hours. In these experiments, DMSO, transfected cells with empty vector and cell without doxorubicin were used as controls. DMSO concentration is maintained at 0.01%. Transfected cells with doxorubicin treatment were used as positive control. The luciferase activity was estimated by following the manufacturer's instruction (Promega) in a luminometer. […] The inhibitory activity (IC50) of a small molecule on p21 luciferase activity was obtained from the average of three biological replicates using PRISM software.

The test system of experiment [2] is melanoma cells. The experiment is described as follows: Melanoma cell proliferation in vitro. To be noted: FIG. 6, FIG. 7. In kind it is cell-based.
Experiment [3] has as its target BRD4-2 (Homo sapiens, UniProt O60885). As to the kind of experiment: Bromodomain binding affinity (tryptophan fluorescence binding assay). The note with it: for pKd: Table 1, read-out: Binding Affinity, Kd BRD4-2; for Kd: Table 4, read-out: BrD4-2 (μM), bromodomain binding. Here is the method:
(§1) Monitoring change of intrinsic tryptophan fluorescence of a protein induced by ligand binding can be used to determine ligand binding affinity (KD). This assay was used to assess ligand binding to the CBP BRD and ischemin binding to the BRDs from other transcription proteins as follows. The chemical ligands were prepared at 500-850 μM in the PBS buffer. Their serial dilutions by a factor of 1.5 in a 384-wells black plate were carried out using a Tecan EVO200 liquid handler down to a concentration of 0.5 nM. Protein was added to the compounds to a final concentration in each well of 5 μM. Tryptophan fluorescence of the protein was measured (with excitation set at 280 nm, emission at 350 nm) on a Tecan Safire2 reader. Inner filter correction was introduced to take into account the possible intrinsic fluorescence of the compound. […] KD was calculated based on the curve fitting.

In experiment [4] the target is BRD4-1 (Homo sapiens, UniProt O60885). The description is as above. To be noted: for pKd: Table 1, read-out: Binding Affinity, Kd BRD4-1; for Kd: Table 4, read-out: BrD4-1 (μM), bromodomain binding. The procedure:
as §1

The test system of experiment [5] is U20S cells. As to the kind of experiment: BRDU incorporation / cell cycle analysis. In kind it is cell-based. To be noted: for Prevention of doxorubicin-induced cell cycle arrest (decrease of BRDU incorporation): compound 50 μM, doxorubicin 5 μM, U20S cells. Here is the method:
BRDU incorporation assay for cell cycle evaluation was performed in 96 well plates using calorimetric based kit from Calbiochem (Cat# QiA58). Hundred microliter of 1×10^5/ml cells were plated in DMEM media (Mediatech) with 10% fetal bovine serum (FBS). After 12 hours cells were treated with compounds ischemin and MS 119 (50 μM) with or without doxorubicin treatment (5 μM). The controls were DMSO and untreated cells. BRDU was added for 24 hours treatment. After 24 hours cells were fixed and treated with anti-BRDU antibody. After washings, the wells were incubated with peroxidase. After final wash, the color was developed using TMB as substrate and the reaction was stopped with stop solution and optical density was estimated at 450 nm.
DNA damage induced by doxorubicin leads to p53 stimulated cellular responses including cell cycle arrest, damage repair, and apoptosis. To determine the effect of ischemin on dividing U20S cells, U20S cells were treated with 5-bromo-2-deoxyuridine (BRDU) and the incorporated BRDU during in DNA synthesis was measured using an ELISA assay.

For experiment [6], the target named is T1, PCAF (Homo sapiens, UniProt Q92831).
T1 sequence (Q92831 723-827 limits assumed): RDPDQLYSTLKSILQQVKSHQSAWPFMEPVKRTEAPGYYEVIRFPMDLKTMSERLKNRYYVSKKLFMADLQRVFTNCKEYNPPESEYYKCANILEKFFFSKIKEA
As to the kind of experiment: Bromodomain binding affinity (tryptophan fluorescence binding assay). To be noted: for Kd: Table 4, read-out: PCAF (μM), bromodomain binding. The procedure:
as §1

Experiment [7] concerns the target CBP BRD (Homo sapiens, UniProt Q92793). The experiment is described as above. The note with it: for Kd: Table 4, read-out: CBP (μM), bromodomain binding. Here is the method: as §1

pKd: −log10 of the molar value. Where two headings read alike, the source gives them in different places.

Sequence of CBP BRD (Q92793 1085-1192 limits assumed): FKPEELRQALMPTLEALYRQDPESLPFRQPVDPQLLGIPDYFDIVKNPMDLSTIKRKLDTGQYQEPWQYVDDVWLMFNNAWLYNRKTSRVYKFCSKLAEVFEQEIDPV

As a reminder, the inhibition is the relative decrease from the control value, in per cent. Regarding `Cc1cc(/N=N/c2ccc(S(=O)(=O)O)cc2)ccc1O` [MS450], in experiment [1], the “Ability to inhibit p53-dependent p21 luciferase activity / p21 expression (SAR, words)” value was “marked increase” and at 50 µM the inhibition was 85.6%. For `CC(C)c1cc(N=Nc2ccc(S(=O)(=O)O)cc2)cc(C(C)C)c1O` [MS105, 4-(4-hydroxy-3,5-diisopropyl-phenylazo)-benzenesulfonic acid], in that order: “reduced activity” and 26.4%. In general, pKd refers to the Kd on a negative log10 scale, so that one unit is a factor of ten. As for `Cc1cc(/C=C/c2ccc(S(=O)(=O)Nc3ccccn3)cc2)c(N)cc1O` [CM0000279], the “Inhibition of melanoma cell proliferation” value in experiment [2] is “capable of inhibiting melanoma cell proliferation”. For the same molecule, the results for the negative logarithm of the Kd (pKd) in experiment [3] and in experiment [4] were greater than 6.00 and 5.68, respectively. In addition, the Kd is less than 1 µM in experiment [3] and 2 µM in experiment [4]. Turning to `Cc1cc(/N=N/c2ccc(S(=O)(=O)O)cc2)c(C)c(C)c1O` [MS103, 4-(4-hydroxy-2,3,5-trimethyl-phenylazo)-benzenesulfonic acid], the inhibition at 50 µM in experiment [1] came to 38.9%.

For `Cc1cc(O)cc(C)c1/N=N/c1ccc(S(=O)(=O)O)cc1` [MS100, 4-(4-hydroxy-2,6-dimethyl-phenylazo)-benzenesulfonic acid], the inhibition at 50 µM in experiment [1] was determined as 36.4%.

In turn, `Cc1cc(C)c(S(=O)(=O)O)cc1/N=N/c1ccc(O)c(Cl)c1` [MS131, 5-(3-chloro-4-hydroxyphenylazo)-2,4-dimethylbenzenesulfonic acid] had an inhibition at 50 µM in experiment [1] of 49.7%. As to `Cc1cc(/N=N/c2ccc(S(=O)(=O)O)cc2)c(C)cc1O` [MS101, 4-(4-hydroxy-2,5-dimethyl-phenylazo)-benzenesulfonic acid], in experiment [1], the “Ability to inhibit p53-dependent p21 luciferase activity / p21 expression (SAR, words)” value is reported as “marked increase” and the inhibition at 50 µM was 82.9%. Regarding `CCC(=O)c1cc(N=Nc2cc(S(=O)(=O)O)c(C)cc2C)ccc1O` [MS127, 5-(4-hydroxyphenylazo-3-(1-propanone))-2,4-dimethylbenzenesulfonic acid], in experiment [1], the “% Inhibition (p53 inhibition, p21 luciferase activity)” value (“% Inhibition” for short) was found to be 86.8%. The molecule `Cc1cc(C)c(S(=O)(=O)O)cc1/N=N/c1cc(C)c(O)c(C)c1C` [MS146, 5-(2,3,5-trimethyl-4-hydroxyphenylazo)-2,4-dimethylbenzenesulfonic acid] registered an inhibition at 50 µM in experiment [1] of 30.8%. Same read-out and setting: next, `CCCc1cc(N=Nc2cc(S(=O)(=O)O)c(C)cc2C)ccc1O` [MS126, 5-(4-hydroxy-3-propyl-phenylazo)-2,4-dimethylbenzenesulfonic acid]: 93.5%; `Cc1cc(O)cc(C)c1/N=N/c1cc(Cl)c(O)c(S(=O)(=O)O)c1` [MS153]: 39%. Turning to `Cc1cc(/N=N/c2ccc(S(=O)(=O)O)cc2)cc(C)c1O` [MS451], in experiment [1], the “Ability to inhibit p53-dependent p21 luciferase activity / p21 expression (SAR, words)” value is “marked increase” and the inhibition at 50 µM turned out to be 87.4%. For `Cc1cc(N=Nc2ccc(S(=O)(=O)O)cc2)cc(C(C)(C)C)c1O` [MS111, 4-(4-hydroxy-3-t-butyl-5-methyl-phenylazo)-benzenesulfonic acid], in that order: “reduced activity” and 22.8%. For `Cc1cc(C)c(S(=O)(=O)O)cc1/N=N/c1c(C)cc(O)cc1C` [MS119, 5-(2,6-dimethyl-4-hydroxyphenylazo)-2,4-dimethylbenzenesulfonic acid], the entries for the “Prevention of doxorubicin-induced cell cycle arrest (decrease of BRDU incorporation)” value in experiment [5] and in experiment [5] (listed as MS 119) were “prevents a doxorubicin-induced decrease of BRDU incorporation” and “almost completely prevented”, respectively. Besides, the “Inhibition of p21 luciferase activity” value in experiment [1] (U20S cells, FIG. 1A) was “Dose-dependent inhibition”. Moreover, 50 µM produced 54% inhibition in experiment [1].

In experiment [1], `Cc1cc(O)c(N)cc1/N=N/c1cc(S(=O)(=O)O)c(C)cc1C` [MS135] yielded an inhibition at 50 µM of 54.8%. “5-(4-hydroxy-3,5-isopropyl-phenylazo)-2,4-dimethylbenzenesulfonic acid [MS128]”: in experiment [1], the “% Inhibition” value was 47.2%.

Regarding `Cc1cc(/C=C/c2ccc(S(=O)(=O)Nc3ccccn3)cc2)c(NC(=O)OC(C)(C)C)cc1O` [CM0000278], the values for the pKd in experiment [3] and in experiment [4] were greater than 6.00 and 5.82, respectively. For `Cc1cc(C#Cc2ccc(S(=O)(=O)Nc3ccccn3)cc2)cc(C)c1O` [CM0000254] the same measures were 5.80 and greater than 6.00.

In the case of `Cc1cc(C)c(S(=O)(=O)O)cc1N=Nc1cc(C)c(O)c(C(C)C)c1` [MS129, 5-(4-hydroxy-3-isopropyl-5-methyl-phenylazo)-2,4-dimethylbenzenesulfonic acid], the inhibition at 50 µM in experiment [1] amounted to 44.6%.

Turning to “5-(4-hydroxy-3-methyl-5-propene-phenylazo)-2,4-methylbenzenesulfonic acid [MS130]”, the “% Inhibition” value in experiment [1] came out at 40.4%. As to `Cc1cc(/C=C/c2ccc(S(=O)(=O)Nc3ccccn3)cc2)cc(C)c1O` [CM0000255], in experiment [2], the “Inhibition of melanoma cell proliferation” value was “capable of inhibiting melanoma cell proliferation”. For the same molecule, the negative-log Kd (pKd) in experiment [6] (Table 1, read-out: Binding Affinity, Kd PCAF) was greater than 6.00; in experiment [7] (Table 1, read-out: Binding Affinity, Kd CBP), 4.48; in experiment [3], greater than 6.00; in experiment [4] it was greater than 6.00. The Kd in experiment [6] is less than 1 µM; in experiment [7], 33 µM; in experiment [3], less than 1 µM; in experiment [4] it was less than 1 µM. As to `COc1cccc2c1C(=O)c1c(O)c3c(c(O)c1C2=O)C[C@@](O)(C(=O)CO)C[C@@H]3O[C@H]1C[C@H](N)[C@H](O)[C@H](C)O1` [doxorubicin, reference compound], in experiment [5] (doxorubicin treatment of U20S cells), the “Decrease of BRDU incorporation” value was found to be 45%. As for `Cc1cc(/N=N/c2ccc(S(=O)(=O)Nc3ccccn3)cc2)cc(C)c1O` [MS0129435], the Kd in experiment [6] was 4.5 µM; in experiment [7], greater than 100 µM; in experiment [3], 2.4 µM; in experiment [4] it was 1.3 µM.

For the molecule `CCc1cc(/N=N/c2cc(S(=O)(=O)O)c(C)cc2C)ccc1O` [MS124, 5-(3-ethyl-4-hydroxyphenylazo)-2,4-dimethylbenzenesulfonic acid], in experiment [1], the inhibition at 50 µM came to 25%. Regarding `CCc1cc(/N=N/c2ccc(S(=O)(=O)O)cc2)ccc1O` [MS113, 4-(4-hydroxy-3-ethyl-phenylazo)-benzenesulfonic acid], in experiment [1], the “Ability to inhibit p53-dependent p21 luciferase activity / p21 expression (SAR, words)” value was “reduced activity” and the inhibition at 50 µM was determined as 25.7%. On to `Cc1cc(/N=N/c2cc(S(=O)(=O)O)c(C)cc2C)c(C)cc1O` [MS118], for which, in experiment [1], 50 µM produced 49.7% inhibition. The same measure, in the same setting: next, `Cc1cc(C)c(S(=O)(=O)O)cc1/N=N/c1cc(C)c(O)c(C)c1` [MS109, 5-(3,5-dimethyl-4-hydroxyphenylazo)-2,4-dimethylbenzenesulfonic acid]: 60.1%.

For the origin of these results see patent US20140066410A1, “INHIBITORS OF BROMODOMAINS AS MODULATORS OF GENE EXPRESSION” (ICAHN SCHOOL OF MEDICINE AT MOUNT SINAI, priority 2011, published 2014).
